Results on one compound are retold here after US20230355622A1, “METHODS OF CHEMOVACCINATION AGAINST PLASMODIUM INFECTIONS” (Merck Sharp & Dohme LLC, priority 2020, published 2023).

Molecules are shown by their SMILES.

The subject of one assay is PbmCherryLuci. Nature of the assay: Rechallenge of chemo-protected mice by mosquito bite infection at 6 and 12 months (FIG. 2A, 2B). As to conditions: 15 infected mosquito bites. Format: in vivo, Plasmodium berghei. An excerpt:
Previously chemo-protected mice were rechallenged with PbmCherryLuci 6 months later by mosquito bite infection. […] In both experiments naïve, sex matched control mice all became infected as expected. Thus in addition to chemoprotection, Example IA could possibly act as a chemovaccination to protect against future infections for one year or more.

Assay [1] concerns PbmCherryLuci sporozoites. Nature of the assay: Immunity after chemovaccination with increasing numbers of sporozoites, BALB/c mice (FIG. 5-7). Format: in vivo, Plasmodium berghei. The protocol:
To investigate how many sporozoites are required to develop immunity, female BALB/c mice (n=3/group) were infected intravenously (i.v.) with increasing numbers of PbmCherryLuci sporozoites and cured with 2×100 mg/kg doses of Example 1A. Three months later, the chemovaccinated mice were challenged with 10 PbmCherryLuci infected mosquito bites. […] Twelve months later, the chemovaccinated mice were challenged with 10 PbmCherryLuci infected mosquito bites.

In assay [2] the test system is PbmCherryLuci sporozoites. Nature of the assay: Inhibition of liver to blood transition in C57BL/6 mice (FIG. 8). The assay is classed as in vivo, Plasmodium berghei. As to conditions: oral gavage during liver infection. The protocol: 40,000 PbmCherryLuci sporozoites (or the indicated number of sporozoites) were inoculated i.v. and compounds were administered by oral gavage at indicated time points during liver infection. Liver infection levels and egress of parasites from the liver were measured by bioluminescence signal from the parasites using an In Vivo Imaging System (IVIS, Perkin Elmer) at the peak of liver infection (52 hours post infection, hpi), during liver egress (55 hpi) as well as during the first round of blood infection (65 hpi). Initiation of blood infection was also measured by flow cytometry at 65 hpi using the mCherry reporter to determine the parasitemia of this first round of blood infection. These analyses allowed quantification of the efficacy of drug killing of parasites in the liver (52 hpi), preventing their egress from the liver (55 hpi) or preventing their successful infection of the blood (65 hpi). Mice were monitored by giemsa stained thin blood smears for the presence of parasites in the blood for 30 days post infection. If no blood infection was seen during the subsequent 30 days, mice were declared cured of malaria infection.
C57BL/6 mice were administered Example 1A or Example 75A as described in the general experimental procedure.

The test system of assay [3] is P. falciparum salivary gland sporozoites. Nature of the assay: Chemoprophylaxis of humanised (FRG) mice infected with P. falciparum sporozoites (FIG. 10). Format: in vivo. The settings on record: FRG mouse with human hepatocytes, 300,000 sporozoites i.v.; four oral treatments 100 mg/kg at day 5, 5.5, 6, 6.5. The protocol: Four immunocompromised mice engrafted with human hepatocytes (FRG mice, Yecuris, OR, USA) were each infected intravenously with 300,000 freshly dissected P. falciparum salivary gland sporozoites. Three mice received no treatment, while one mouse received four oral treatments with 100 mg/kg Example 1A during P. falciparum liver stage development (at day 5, day 5.5, day 6 and day 6.5 post infection). […] On day 7 post infection all mice were bled, and the blood cultured under standard culture conditions at 4% hematocrit with 1% oxygen. Fresh hematocrit was added to the cultures each week to provide fresh host cells for infection, and cultures were analysed for the presence of blood parasites 2-3 times per week by inspection of Giemsa-stained thin blood smears.

`CCC1(CC)CC(=O)N(C2CCOc3ccc(C(=O)N[C@H]4CC(C)(C)Oc5ccccc54)cc32)C(=N)N1` (stereo partly drawn) [Example 1A, 4-(4,4-diethyl-2-imino-6-oxotetrahydropyrimidin-1(2H)-yl)-N—((S)-2,2-dimethylchroman-4-yl)chroman-6-carboxamide]: the “immunity to reinfection challenge” value in the assay with PbmCherryLuci (rechallenge 6 months later) is reported as “all mice were subsequently immune”. Besides, in the assay with PbmCherryLuci (rechallenge 12 months after chemoprotection), the “mice fully protected on rechallenge” value is “Four of five mice were again fully protected”. Besides, the “mice with sterile protection from blood stage malaria infection” value in assay [1] (BALB/c n=3/group, immunized with 500 sporozoites i.v., 2x100 mg/kg, 3-month challenge, 10 mosquito bites) is 1/3. For the same compound, the “sterile protection from blood stage malaria infection” value is given as “all mice showed sterile protection” in assay [1] (challenge at 12 months (FIG. 7)); “showed sterile protection from blood stage malaria infection” in assay [1] (immunized with 1,000 sporozoites i.v., 2x100 mg/kg, 3-month challenge); “showed sterile protection from blood stage malaria infection” in assay [1] (immunized with 40,000 sporozoites i.v., 2x100 mg/kg, 3-month challenge). Further, the “mice that developed malaria symptoms but showed partial immunity” value in assay [1] (immunized with 500 sporozoites i.v., 2x100 mg/kg, 3-month challenge) was 2/3. Further, in assay [1] (mice immune at 3 months, re-challenged at 6 and 12 months post initial immunization), the immunity on re-challenge result is recorded as “completely immune”. In addition, the “infection of the blood” value in assay [2] was “completely prevented infection of the blood in all mice”. For the same compound, the “blood parasites in culture of blood taken day 7 post infection” value in assay [3] is “remained negative for blood parasites over an eight-week observation period”.
